The values below come from patent publication US20260042755A1, “GPR6 INVERSE AGONISTS” (MapLight Therapeutics, Inc., priority 2022, published 2026).

For one assay, the target named is T1, GPR6 (Homo sapiens, UniProt P46095).
T1 construct: expressed in transfected cells; host or cells: CHO cells
Put plainly: GPR6 antagonist functional cAMP assay (LANCE Ultra cAMP TR-FRET, CHO cells stably expressing GPR6). In kind it is cell-based. As to conditions: CHO cells stably expressing GPR6, cAMP assay (Example 24). The gist of the method:
(§1)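 cAMP quantified by TR-FRET immunoassay after 45 min compound treatment at 37° C of CHO cells stably expressing GPR3 or GPR6, in PDE-inhibitor (Ro 20-1724, 150 μM) buffer with 0.1% BSA. Data scaled between DMSO (0%) and reference compounds (100%); antagonist IC50 by 4-parameter logistic fit.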

A further assay has as its target T2, GPR3 (Homo sapiens, UniProt P46089).
T2 construct: expressed in transfected cells; host or cells: CHO cells
Put plainly: GPR3 antagonist functional cAMP assay (LANCE Ultra cAMP TR-FRET, CHO cells stably expressing GPR3). Conditions: CHO cells stably expressing GPR3, cAMP assay (Example 24). The format is cell-based. The gist of the method:
as §1

T2 sequence (P46089 whole entry, species assumed): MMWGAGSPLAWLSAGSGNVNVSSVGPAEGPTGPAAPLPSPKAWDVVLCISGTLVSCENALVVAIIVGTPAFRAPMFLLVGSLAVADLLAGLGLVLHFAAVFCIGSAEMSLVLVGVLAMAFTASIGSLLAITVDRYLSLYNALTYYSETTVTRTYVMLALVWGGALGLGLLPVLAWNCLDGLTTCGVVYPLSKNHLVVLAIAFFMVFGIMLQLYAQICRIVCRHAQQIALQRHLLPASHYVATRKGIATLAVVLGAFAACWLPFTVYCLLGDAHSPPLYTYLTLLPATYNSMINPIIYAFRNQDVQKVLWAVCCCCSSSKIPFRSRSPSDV
T1 sequence (P46095 whole entry): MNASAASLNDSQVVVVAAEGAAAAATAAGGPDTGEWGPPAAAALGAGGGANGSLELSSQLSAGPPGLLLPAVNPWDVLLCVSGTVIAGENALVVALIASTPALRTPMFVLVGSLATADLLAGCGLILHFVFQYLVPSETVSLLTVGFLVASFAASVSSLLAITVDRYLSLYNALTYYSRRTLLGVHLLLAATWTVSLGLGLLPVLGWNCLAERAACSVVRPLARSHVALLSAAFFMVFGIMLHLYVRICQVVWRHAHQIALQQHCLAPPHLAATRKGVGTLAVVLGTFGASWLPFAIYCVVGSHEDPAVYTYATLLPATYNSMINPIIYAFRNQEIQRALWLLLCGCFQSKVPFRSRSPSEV

Take `CC(=O)N1CCc2nc(N3CCC(Oc4ccc(F)cc4F)CC3)c(C3=CCOCC3)nc2C1` [Compound 198, 1-{2-[4-(2,4-difluorophenoxy)piperidin-1-yl]-3-(3,6-dihydro-2H-pyran-4-yl)-5H,6H,7H,8H-pyrido[3,4-b]pyrazin-6-yl}ethan-1-one]: the IC50 against GPR6 lay within 100 to 1000 nM; at GPR3 it was 1000 to 30000 nM.

Take `Fc1ccc(OC2CCN(c3nc4c(nc3-c3cn[nH]c3)CN(C3COC3)CC4)CC2)c(F)c1` [Compound 199, 4-(2,4-difluorophenoxy)-1-[6-(oxetan-3-yl)-3-(1H-pyrazol-4-yl)-5H,6H,7H,8H-pyrido[3,4-b]pyrazin-2-yl]piperidine]: the figures for the IC50 against GPR6 and against GPR3 were 100 to 1000 nM and 1000 to 30000 nM, respectively.

`N#CN1CCc2nc(N3CCC(Oc4ccc(F)cc4F)CC3)c(-c3cnn(C4CCCCO4)c3)nc2C1` (centres unmarked) [Compound 200, 2-[4-(2,4-difluorophenoxy)piperidin-1-yl]-3-[1-(oxan-2-yl)-1H-pyrazol-4-yl]-5H,6H,7H,8H-pyrido[3,4-b]pyrazine-6-carbonitrile]: the IC50 on GPR6 and against GPR3 was 1000 to 30000 nM in each case.

Turning to `COCC(=O)N1CCc2nc(N3CCC(Oc4ccc(F)cc4F)CC3)c(-c3cnn(C4CCCCO4)c3)nc2C1` (centres unmarked) [Compound 201, 1-{2-[4-(2,4-difluorophenoxy)piperidin-1-yl]-3-[1-(oxan-2-yl)-1H-pyrazol-4-yl]-5H,6H,7H,8H-pyrido[3,4-b]pyrazin-6-yl}-2-methoxyethan-1-one], the IC50 against GPR6 and at GPR3 was 1000 to 30000 nM in each case.

On to `O=C(CN1CCOCC1)N1CCc2nc(N3CCC(Oc4ccc(F)cc4F)CC3)c(-c3cnn(C4CCCCO4)c3)nc2C1` (centres unmarked) [Compound 202, 1-{2-[4-(2,4-difluorophenoxy)piperidin-1-yl]-3-[1-(oxan-2-yl)-1H-pyrazol-4-yl]-5H,6H,7H,8H-pyrido[3,4-b]pyrazin-6-yl}-2-(morpholin-4-yl)ethan-1-one], for which the 50% inhibitory concentration (IC50) against GPR6 and on GPR3 was 1000 to 30000 nM throughout.

On to `C=CC(=O)N1CCc2nc(N3CCC(Oc4ccc(F)cc4F)CC3)c(-c3cn[nH]c3)nc2C1` [Compound 203, 1-{2-[4-(2,4-difluorophenoxy)piperidin-1-yl]-3-(1H-pyrazol-4-yl)-5H,6H,7H,8H-pyrido[3,4-b]pyrazin-6-yl}prop-2-en-1-one], for which the figures for the IC50 against GPR6 and against GPR3 were below 100 nM and 1000 to 30000 nM, respectively.

As to `O=C(CO)N1CCc2nc(N3CCC(Oc4ccc(F)cc4F)CC3)c(-c3cnn(C4CCCCO4)c3)nc2C1` (centres unmarked) [Compound 204, 1-{2-[4-(2,4-difluorophenoxy)piperidin-1-yl]-3-[1-(oxan-2-yl)-1H-pyrazol-4-yl]-5H,6H,7H,8H-pyrido [3,4-b]pyrazin-6-yl}-2-hydroxyethan-1-one], the 50% inhibitory concentration (IC50) against GPR6 is 100 to 1000 nM; against GPR3, at least 30000 nM.

Take `COc1cccc(-c2nc3c(nc2N2CCN(Cc4ccc(F)cc4Cl)CC2)CCN(C(C)=O)C3)n1` [Compound 205, 1-(2-{4-[(2-chloro-4-fluorophenyl)methyl]piperazin-1-yl}-3-(6-methoxypyridin-2-yl)-5H,6H,7H,8H-pyrido[3,4-b]pyrazin-6-yl)ethan-1-one]: the IC50 was 100 to 1000 nM at GPR6 and 1000 to 30000 nM at GPR3.

As for `O=C(N1CCc2nc(N3CCC(Oc4ccc(F)cc4F)CC3)c(-c3cn[nH]c3)nc2C1)N1CC(O)C1` [Compound 206, 1-{2-[4-(2,4-difluorophenoxy)piperidin-1-yl]-3-(1H-pyrazol-4-yl)-5H,6H,7H,8H-pyrido[3,4-b]pyrazine-6-carbonyl}azetidin-3-ol], the IC50 against GPR6 fell in the range of 100 to 1000 nM; on GPR3 it was 1000 to 30000 nM.

In the case of `O=S(=O)(C1COC1)N1CCc2nc(N3CCC(Oc4ccc(F)cc4F)CC3)c(-c3cn[nH]c3)nc2C1` [Compound 207, 4-(2,4-difluorophenoxy)-1-[6-(oxetane-3-sulfonyl)-3-(1H-pyrazol-4-yl)-5H,6H,7H,8H-pyrido[3,4-b]pyrazin-2-yl]piperidine], the half-maximal inhibitory concentration (IC50) against GPR6 and on GPR3 was 1000 to 30000 nM throughout.

In the case of `CC(=O)N1CCc2nc(N3CCC(Oc4ccc(F)cc4F)CC3)c(-c3cnn(C(C)C#N)c3)nc2C1` (centres unmarked) [Compound 208, 2-(4-{6-acetyl-2-[4-(2,4-difluorophenoxy)piperidin-1-yl]-5H,6H,7H,8H-pyrido[3,4-b]pyrazin-3-yl}-1H-pyrazol-1-yl)propanenitrile], the figures for the IC50 against GPR6 and against GPR3 were 100 to 1000 nM and 1000 to 30000 nM, respectively.

For the compound `CC(=O)N1CCc2nc(N3CCC(Oc4ccc(F)cc4F)CC3)c(-c3cnn(CC4CC4)c3)nc2C1` [Compound 209, 1-{3-[1-(cyclopropylmethyl)-1H-pyrazol-4-yl]-2-[4-(2,4-difluorophenoxy)piperidin-1-yl]-5H,6H,7H,8H-pyrido[3,4-b]pyrazin-6-yl}ethan-1-one], the half-inhibitory concentration (IC50) at GPR6 lay within 100 to 1000 nM; on GPR3 it was 1000 to 30000 nM.

Regarding `CC(=O)N1CCc2nc(N3CCC(Oc4ccc(F)cc4F)CC3)c(-c3cccc(C(O)C(F)F)n3)nc2C1` (centres unmarked) [Compound 210, 1-(3-[6-(2,2-difluoro-1-hydroxyethyl)pyridin-2-yl]-2-[4-(2,4-difluorophenoxy)piperidin-1-yl]-5H,6H,7H,8H-pyrido[3,4-b]pyrazin-6-yl)ethan-1-one], the half-maximal inhibitory concentration (IC50) against GPR6 and against GPR3 was 1000 to 30000 nM each time.

On to `Cn1cc(-c2nc3c(nc2N2CCC(Oc4ccc(F)cc4F)CC2)CCN(S(C)(=O)=O)C3)cn1` [Compound 211, 4-(2,4-difluorophenoxy)-1-[6-methanesulfonyl-3-(1-methyl-1H-pyrazol-4-yl)-5H,6H,7H,8H-pyrido[3,4-b]pyrazin-2-yl]piperidine], for which the IC50 at GPR6 is below 100 nM; against GPR3, 1000 to 30000 nM.

Take `CC(=O)N1CCc2nc(N3CCC(Oc4ccc(F)cc4F)CC3)c(-c3cnn(C4CN(C)C4)c3)nc2C1` [Compound 212, 1-{2-[4-(2,4-difluorophenoxy)piperidin-1-yl]-3-[1-(1-methylazetidin-3-yl)-1H-pyrazol-4-yl]-5H,6H,7H,8H-pyrido[3,4-b]pyrazin-6-yl}ethan-1-one]: the 50% inhibitory concentration (IC50) on GPR6 and at GPR3 was 1000 to 30000 nM in each case.

`Cn1cc(-c2nc3cnccc3nc2N2CCN(CC3CCC(F)(F)CC3)CC2)cn1` [Compound 213, 1-[(4,4-difluorocyclohexyl)methyl]-4-[3-(1-methyl-1H-pyrazol-4-yl)pyrido[3,4-b]pyrazin-2-yl]piperazine]: the concentration for half-maximal inhibition (IC50) against GPR6 and against GPR3 was 1000 to 30000 nM throughout.

As for `Cn1cc(-c2nc3cnccc3nc2N2CCN(CC3CCCC(F)(F)C3)CC2)cn1` (centres unmarked) [Compound 214, 1-[(3,3-difluorocyclohexyl)methyl]-4-[3-(1-methyl-1H-pyrazol-4-yl)pyrido[3,4-b]pyrazin-2-yl]piperazine], the IC50 on GPR6 and against GPR3 was 1000 to 30000 nM each time.

With `COc1ncc(-c2nc3c(nc2N2CCC(Oc4ccc(F)cc4F)CC2)CCN(C(C)=O)C3)nc1OC` [Compound 215, 1-{2-[4-(2,4-difluorophenoxy)piperidin-1-yl]-3-(5,6-dimethoxypyrazin-2-yl)-5H,6H,7H,8H-pyrido[3,4-b]pyrazin-6-yl}ethan-1-one], the 50% inhibitory concentration (IC50) at GPR6 is 100 to 1000 nM; against GPR3, 1000 to 30000 nM.

`Cn1cc(-c2nc3cnc(C#N)cc3nc2N2CCN(Cc3ccc(F)cc3F)CC2)cn1` [Compound 216, 2-{4-[(2,4-difluorophenyl)methyl]piperazin-1-yl}-3-(1-methyl-1H-pyrazol-4-yl)pyrido[3,4-b]pyrazine-7-carbonitrile]: the IC50 against GPR6 is 100 to 1000 nM; at GPR3, 1000 to 30000 nM.

For the compound `CC(=O)N1CCc2nc(N3CCC(Oc4ccc(F)cc4F)CC3)c(C3CCC(F)(F)CC3)nc2C1` [Compound 217, 1-[3-(4,4-difluorocyclohexyl)-2-[4-(2,4-difluorophenoxy)piperidin-1-yl]-5H,6H,7H,8H-pyrido[3,4-b]pyrazin-6-yl]ethan-1-one], the half-inhibitory concentration (IC50) on GPR6 and against GPR3 was 1000 to 30000 nM in each case.

Consider `CC(=O)N1CCc2nc(N3CCC(Oc4ccc(F)cc4F)CC3)c(C3CCS(=O)(=O)CC3)nc2C1` [Compound 218, 4-{6-acetyl-2-[4-(2,4-difluorophenoxy)piperidin-1-yl]-5H,6H,7H,8H-pyrido[3,4-b]pyrazin-3-yl}-1λ^6-thiane-1,1-dione], for which the IC50 on GPR6 and at GPR3 was 1000 to 30000 nM throughout.

For `CC(=O)N1CCc2nc(N3CCC(Oc4ccc(F)cc4F)CC3)c(C3=COCCC3)nc2C1` [Compound 219, 1-{2-[4-(2,4-difluorophenoxy)piperidin-1-yl]-3-(3,4-dihydro-2H-pyran-5-yl)-5H,6H,7H,8H-pyrido[3,4-b]pyrazin-6-yl}ethan-1-one], the 50% inhibitory concentration (IC50) against GPR6 is 100 to 1000 nM; against GPR3 it was at least 30000 nM.

Consider `CCn1cc(-c2nc3c(nc2N2CCC(Oc4ccc(F)cc4F)CC2)CCN(C(C)=O)C3)cn1` [Compound 220, 1-{2-[4-(2,4-difluorophenoxy)piperidin-1-yl]-3-(1-ethyl-1H-pyrazol-4-yl)-5H,6H,7H,8H-pyrido[3,4-b]pyrazin-6-yl}ethan-1-one], for which the 50% inhibitory concentration (IC50) at GPR6 was below 100 nM; on GPR3, 1000 to 30000 nM.

With `COC(=O)c1cc2nc(N3CCC(Oc4ccc(F)cc4F)CC3)c(-c3cncc(OC)n3)nc2cn1` [Compound 221, methyl 2-[4-(2,4-difluorophenoxy)piperidin-1-yl]-3-(6-methoxypyrazin-2-yl)pyrido[3,4-b]pyrazine-7-carboxylate], the half-maximal inhibitory concentration (IC50) on GPR6 and against GPR3 was 1000 to 30000 nM throughout.

`CNC(=O)c1cc2nc(N3CCC(Oc4ccc(F)cc4F)CC3)c(-c3cncc(OC)n3)nc2cn1` [Compound 222, 2-[4-(2,4-difluorophenoxy)piperidin-1-yl]-3-(6-methoxypyrazin-2-yl)-N-methylpyrido[3,4-b]pyrazine-7-carboxamide]: the IC50 against GPR6 and against GPR3 was 1000 to 30000 nM each time.
